Measured values: PubChem BioAssay AID1919004 (Molecular Pharmacology Branch, DTP, NCI, 2023)

System: 883617-216-R-J1-PDC complex spheroids, growth, % test/control
Experiment: Anticancer human tumor 883617-216-R-J1-PDC patient-derived bladder carcinoma cell line growth inhibition [AhR]
Settings: for IC50: curve of first compound; for viability, T/C: stronger effect = lower value
Summary of the method: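 Agents were dosed in half-log steps down from roughly clinical Cmax, or from 10 microM where Cmax was unknown, alone and with AhR antagonists. Read-out: percent test/control growth of tumor spheroids containing HUVEC and MSC stromal cells.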

[1] = second compound 0.1 µM, first compound 0.0316 µM
[2] = second compound 0.1 µM, first compound 0.1 µM
[3] = second compound 0.1 µM, first compound 0.316 µM
[4] = second compound 0.1 µM, first compound 1 µM
[5] = second compound 0.1 µM, first compound 3.16 µM
[6] = second compound 0.1 µM, first compound 10 µM
[7] = second compound 0.316 µM, first compound 0.0316 µM
[8] = second compound 0.316 µM, first compound 0.1 µM
[9] = second compound 0.316 µM, first compound 0.316 µM
[10] = second compound 0.316 µM, first compound 1 µM
[11] = second compound 0.316 µM, first compound 3.16 µM
[12] = second compound 0.316 µM, first compound 10 µM
[13] = second compound 1 µM, first compound 0.0316 µM
[14] = second compound 1 µM, first compound 0.1 µM
[15] = second compound 1 µM, first compound 0.316 µM
[16] = second compound 1 µM, first compound 1 µM
[17] = second compound 1 µM, first compound 3.16 µM
[18] = second compound 1 µM, first compound 10 µM
[19] = second compound 3.16 µM, first compound 0.0316 µM
[20] = second compound 3.16 µM, first compound 0.1 µM
[21] = second compound 3.16 µM, first compound 0.316 µM
[22] = second compound 3.16 µM, first compound 1 µM
[23] = second compound 3.16 µM, first compound 3.16 µM
[24] = second compound 3.16 µM, first compound 10 µM
[25] = second compound 10 µM, first compound 0.0316 µM
[26] = second compound 10 µM, first compound 0.1 µM
[27] = second compound 10 µM, first compound 0.316 µM
[28] = second compound 10 µM, first compound 1 µM
[29] = second compound 10 µM, first compound 3.16 µM
[30] = second compound 10 µM, first compound 10 µM
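Also: exposure lasted 7 days after dosing on day 3 of spheroid growth.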

Structure (SMILES): CC(C)c1c(-c2ccccc2)nc2c(C#N)c[nH]n2c1=O + CC(CO)NC(=O)c1cc(-c2ccc(Cl)cc2)nn(-c2cnn(C)c2)c1=O
- IC50 (second compound 0.1 µM): > 10000 nM
- IC50 (second compound 0.316 µM): > 10000 nM
- IC50 (second compound 1 µM): > 10000 nM
- IC50 (second compound 3.16 µM): > 10000 nM
- IC50 (second compound 10 µM): > 10000 nM
- viability, T/C [1]: 77.3%
- viability, T/C [2]: 71.2%
- viability, T/C [3]: 66.1%
- viability, T/C [4]: 70.4%
- viability, T/C [5]: 84.5%
- viability, T/C [6]: 96%
- viability, T/C [7]: 94.8%
- viability, T/C [8]: 85.2%
- viability, T/C [9]: 65.7%
- viability, T/C [10]: 74%
- viability, T/C [11]: 91.4%
- viability, T/C [12]: 75.6%
- viability, T/C [13]: 59.7%
- viability, T/C [14]: 97.8%
- viability, T/C [15]: 103%
- viability, T/C [16]: 92.6%
- viability, T/C [17]: 87.1%
- viability, T/C [18]: 78.3%
- viability, T/C [19]: 95.2%
- viability, T/C [20]: 92.5%
- viability, T/C [21]: 75.2%
- viability, T/C [22]: 79.3%
- viability, T/C [23]: 51%
- viability, T/C [24]: 57.7%
- viability, T/C [25]: 79.4%
- viability, T/C [26]: 87.1%
- viability, T/C [27]: 106%
- viability, T/C [28]: 57.8%
- viability, T/C [29]: 64%
- viability, T/C [30]: 62.5%

Structure (SMILES): CC1COCCN1c1cc(-c2ccnn2C)c2ccnc(-c3ccn[nH]3)c2n1 (stereo not given) + CC(CO)NC(=O)c1cc(-c2ccc(Cl)cc2)nn(-c2cnn(C)c2)c1=O
- IC50 (second compound 0.1 µM): > 1000 nM
- IC50 (second compound 0.316 µM): > 1000 nM
- IC50 (second compound 1 µM): > 1000 nM
- IC50 (second compound 3.16 µM): > 1000 nM
- IC50 (second compound 10 µM): > 1000 nM
- viability, T/C (second compound 0.1 µM, first compound 0.00316 µM): 70.5%
- viability, T/C (second compound 0.1 µM, first compound 0.01 µM): 80.7%
- viability, T/C [1]: 55.6%
- viability, T/C [2]: 87.4%
- viability, T/C [3]: 73.9%
- viability, T/C [4]: 56.8%
- viability, T/C (second compound 0.316 µM, first compound 0.00316 µM): 80.9%
- viability, T/C (second compound 0.316 µM, first compound 0.01 µM): 85.6%
- viability, T/C [7]: 88.2%
- viability, T/C [8]: 63.8%
- viability, T/C [9]: 48.5%
- viability, T/C [10]: 53.1%
- viability, T/C (second compound 1 µM, first compound 0.00316 µM): 88.8%
- viability, T/C (second compound 1 µM, first compound 0.01 µM): 82.5%
- viability, T/C [13]: 114%
- viability, T/C [14]: 100%
- viability, T/C [15]: 53.5%
- viability, T/C [16]: 54%
- viability, T/C (second compound 3.16 µM, first compound 0.00316 µM): 58.3%
- viability, T/C (second compound 3.16 µM, first compound 0.01 µM): 69.8%
- viability, T/C [19]: 72.8%
- viability, T/C [20]: 73.2%
- viability, T/C [21]: 61.7%
- viability, T/C [22]: 53.2%
- viability, T/C (second compound 10 µM, first compound 0.00316 µM): 65.8%
- viability, T/C (second compound 10 µM, first compound 0.01 µM): 64.2%
- viability, T/C [25]: 72.8%
- viability, T/C [26]: 53.8%
- viability, T/C [27]: 54.4%
- viability, T/C [28]: 72%

Structure (SMILES): COc1ccc([C@@H](O)c2cc(-c3ncnc4cc(N5CCOCC5)ccc34)c(F)cc2Cl)nn1 + CC(CO)NC(=O)c1cc(-c2ccc(Cl)cc2)nn(-c2cnn(C)c2)c1=O
- IC50 (second compound 0.1 µM): 9070 nM
- IC50 (second compound 0.316 µM): 8400 nM
- IC50 (second compound 1 µM): 10000 nM
- IC50 (second compound 3.16 µM): 10000 nM
- IC50 (second compound 10 µM): 3520 nM
- viability, T/C [1]: 83%
- viability, T/C [2]: 94.7%
- viability, T/C [3]: 76.8%
- viability, T/C [4]: 75.9%
- viability, T/C [5]: 60.1%
- viability, T/C [6]: 49.1%
- viability, T/C [7]: 69.9%
- viability, T/C [8]: 128%
- viability, T/C [9]: 83.1%
- viability, T/C [10]: 63.9%
- viability, T/C [11]: 124%
- viability, T/C [12]: 42.2%
- viability, T/C [13]: 86.4%
- viability, T/C [14]: 99.7%
- viability, T/C [15]: 55.9%
- viability, T/C [16]: 58.9%
- viability, T/C [17]: 61.4%
- viability, T/C [18]: 42.1%
- viability, T/C [19]: 64.8%
- viability, T/C [20]: 135%
- viability, T/C [21]: 73.6%
- viability, T/C [22]: 61.7%
- viability, T/C [23]: 37.1%
- viability, T/C [24]: 51.6%
- viability, T/C [25]: 119%
- viability, T/C [26]: 81.7%
- viability, T/C [27]: 88.7%
- viability, T/C [28]: 73.4%
- viability, T/C [29]: 51.1%
- viability, T/C [30]: 32.4%

Structure (SMILES): O=C(C=Cn1cnc(-c2cc(C(F)(F)F)cc(C(F)(F)F)c2)n1)NNc1cnccn1 + CC(CO)NC(=O)c1cc(-c2ccc(Cl)cc2)nn(-c2cnn(C)c2)c1=O
- IC50 (second compound 0.1 µM): 155 nM
- IC50 (second compound 0.316 µM): 351 nM
- IC50 (second compound 1 µM): 187 nM
- IC50 (second compound 3.16 µM): 180 nM
- IC50 (second compound 10 µM): 165 nM
- viability, T/C (second compound 0.1 µM, first compound 0.00949 µM): 93.7%
- viability, T/C (second compound 0.1 µM, first compound 0.03 µM): 78.1%
- viability, T/C (second compound 0.1 µM, first compound 0.0949 µM): 56.8%
- viability, T/C (second compound 0.1 µM, first compound 0.3 µM): 40.4%
- viability, T/C (second compound 0.1 µM, first compound 0.949 µM): 34.5%
- viability, T/C (second compound 0.1 µM, first compound 3 µM): 29.7%
- viability, T/C (second compound 0.316 µM, first compound 0.00949 µM): 109%
- viability, T/C (second compound 0.316 µM, first compound 0.03 µM): 79.4%
- viability, T/C (second compound 0.316 µM, first compound 0.0949 µM): 71%
- viability, T/C (second compound 0.316 µM, first compound 0.3 µM): 50.1%
- viability, T/C (second compound 0.316 µM, first compound 0.949 µM): 37.8%
- viability, T/C (second compound 0.316 µM, first compound 3 µM): 37.2%
- viability, T/C (second compound 1 µM, first compound 0.00949 µM): 60.4%
- viability, T/C (second compound 1 µM, first compound 0.03 µM): 76.3%
- viability, T/C (second compound 1 µM, first compound 0.0949 µM): 65%
- viability, T/C (second compound 1 µM, first compound 0.3 µM): 37.2%
- viability, T/C (second compound 1 µM, first compound 0.949 µM): 46.8%
- viability, T/C (second compound 1 µM, first compound 3 µM): 34.5%
- viability, T/C (second compound 3.16 µM, first compound 0.00949 µM): 65.1%
- viability, T/C (second compound 3.16 µM, first compound 0.03 µM): 61.9%
- viability, T/C (second compound 3.16 µM, first compound 0.0949 µM): 71.2%
- viability, T/C (second compound 3.16 µM, first compound 0.3 µM): 32.4%
- viability, T/C (second compound 3.16 µM, first compound 0.949 µM): 50.3%
- viability, T/C (second compound 3.16 µM, first compound 3 µM): 29.1%
- viability, T/C (second compound 10 µM, first compound 0.00949 µM): 72.3%
- viability, T/C (second compound 10 µM, first compound 0.03 µM): 46.9%
- viability, T/C (second compound 10 µM, first compound 0.0949 µM): 75.3%
- viability, T/C (second compound 10 µM, first compound 0.3 µM): 34.1%
- viability, T/C (second compound 10 µM, first compound 0.949 µM): 37.5%
- viability, T/C (second compound 10 µM, first compound 3 µM): 24.9%
